Source: patent US20160199445A1, “USE OF ARPIN A NEW INHIBITOR OF THE ARP2/3 COMPLEX FOR THE DIAGNOSIS AND TREATMENT OF DISEASES” (CENTRE NATIONAL DE LA RECHERCHE SCIENTIFIQUE, priority 2013, published 2016)

Columns and labels:
Arp2/3 complex [1] = assay: Competition pulldown: HeLa cell extract and GST N-WASP VCA immobilized on glutathione beads; assay type: binding; conditions: 5 μM GST N-WASP VCA; Arpin/ArpinΔA 18 μM, ArpinA 304 μM and serial 2-fold dilutions
Protocol: (§1) FIG. 1: Arpin inhibits Arp2/3 activation in vitro. a, Alignment of acidic C-termini of 3 NPFs and of Arpin. […] Pulldown was performed with HeLa cell extract and GST fusions of Arpin full length (FL), Arpin deleted of its last 16 amino-acids (ΔA), the last 16 amino-acids (A) or the VCA domain of N-WASP as a positive control. Arp2/3 binding was assessed by western blot against the ArpC2 subunit. c, Spectrofluorimetry assay to monitor actin polymerisation.
(§2) Arp2/3 is displaced from its interaction with 5 μM GST N-WASP VCA immobilized on glutathione beads by the Arpin Acidic peptide (304 μM and serial 2-fold dilutions).
(§3) 6. GST Pull Down, Immunoprecipitations, SDS-PAGE and Western Blots HeLa cells were lysed in 50 mM Tris-HCl, 150 mM NaCl, 1 mM EDTA, 1 mM DTT, 0.5% Triton-X100, 5% glycerol, pH 7.5. 20 μg of GST fusion protein associated with 20 μl of glutathione sepharose 4B beads (GE […]) were incubated with 1 ml of HeLa cell extracts for 2 h at 4° C. Beads were washed and analysed by western blot.

MDA-MB-231 cells = assay: Electroporation of MDA-MB-231 cells with purified Arpin; analysis of cell migration; assay type: cell-based, human
Source text: FIG. 27: Electroporation of MDA-MB-231 cells with purified Arpin; analysis of cell migration.
Purified recombinant Arpin can be introduced efficiently into various cell types by electroporation as shown in FIG. 26 with retinal pigment epithelial (RPE-I) cells, mouse embryonic fibroblasts (MEFs) and breast invasive human cell line MDA-MB-231. MDA-MB-231 cells depleted of Arpin migrates faster and more directionally than their respective non-targeting controls (shCtrl).

trout keratocytes = assay: Microinjection of purified protein into migrating fish keratocytes; assay type: cell-based, brook trout (Salvelinus fontinalis); conditions: injected fish keratocytes; for turning (direction autocorrelation): n≧8, P<0.05 between 16 and 272 s
Source text: FIG. 24: Arpin microinjection induces fish keratocyte to turn. a, Trout keratocytes were micro-injected with purified full length Arpin, ArpinΔA or buffer as control. Upon micro-injection of Arpin, lamellipodia were modified and the cells turned. Scale bar, 20 μm. b, Quantifications of the indicated parameters. Mean±sem; n≧8, * P<0.05, *** P<0.001, ANOVA. c, Kymograph of the Arpin microinjected keratocyte. The leading edge undergoes cycles of protrusions and retractions. d, Model. Directional persistence of migration in this cell system requires a positive feedback loop. Branched actin is sensed and activates Rac as a response. In this context, WAVE closes a positive feedback loop. In contrast, Arpin closes a negative feedback loop. These two nested positive and negative feedback loops can account for the oscillatory behavior of the leading edge observed upon Arpin micro-injection.
FIG. 25: Procedures to quantify fish keratocyte migration. a, Kymograph analysis. Lamellipodial dynamics were studied along a one-pixel-wide line oriented in the direction of protrusions, using the MultiKymograph plug-in in ImageJ. Protrusion velocity was the average of all protrusion slopes at the front of the cell. Projections along the distance axis and the time axis, gave, respectively, length and duration of the protrusion. Cell speed was determined using the slope of the dashed line indicating the rear of the cell. b, Outline analysis. Cell contours were defined using CellTrack software (http://db.cse.ohio-state.edu/CellTrack) and manually adjusted when necessary. The cell from frame t is overlayed with the same cell in frame t+100 s, using their center of mass as a reference. The non-overlapping areas are summed up to give the cell deformation between these two frames. […]
Keratocytes were isolated from scales of freshly killed brook trout (Salvelinus fontinalis) as previously described^41 and imaged by phase contrast on an inverted Zeiss Axioscope using ×63 optics, and a halogen lamp as light source. […] Contours were analysed using the CellTrack software (OHIO STATE UNIVERSITY). […]

Arp2/3 complex [2] = assay: Assembly of branched actin networks monitored by TIRF microscopy; assay type: biochemical; conditions: 1 μM actin, 150 nM VCA, 80 nM Arp2/3, Arpin at 5 μM; 5, 10, 15 and 20 min
Protocol: as §1
FIG. 10: Quantification of Arpin inhibition on the generation of branched actin networks. Conditions as in FIG. 1d. Images were extracted from the TIRF movies, 5, 10, 15 and 20 min after initiation of the reaction. The number of branches and filaments were counted and the ratio determined.
(§4) Pyrene actin assays and monitoring of the branching reaction were performed as described in reference 38 with the conditions described in figure legends. VCA refers to the VCA domain of WAVE1 purified as described^39.

Arp2/3 complex [3] = assay: Pyrene-actin polymerisation assay (spectrofluorimetry); assay type: biochemical; conditions: for inhibition of VCA-activated Arp2/3 actin polymerisation: 2 μM actin (10% pyrene-labelled), 500 nM VCA, 20 nM Arp2/3
Protocol: as §1
Conditions: 2 μM Actin (10% pyrene-labelled), 20 nM Arp2/3, 500 nM Scar VCA, 5 μM Arpin.
FIG. 8: Determination of apparent Kd from Arpin inhibition of Arp2/3 nucleation. a, Arpin inhibits Arp2/3 activation in the pyrene-actin assay.
as §2, §4

Arp2/3 complex [4] = assay: GST fusion pulldown of Arp2/3 from HeLa cell extract (western blot against ArpC2); assay type: binding; conditions: GST fusions
Protocol: as §1, §3

Arp2/3 complex [5] = assay: Fluorescence anisotropy based determination of Kd (labelled ArpinA peptide, purified Arp2/3 complex); assay type: binding; conditions: for displacement of labelled ArpinA peptide bound to the Arp2/3 complex: titration of labelled ArpinA peptide/Arp2/3 complex with purified protein
Protocol: FIG. 5: Arpin directly binds to the Arp2/3 complex with a dissociation constant of 200 nM. a, Fluorescence anisotropy measurements of labelled ArpinA peptide binding at equilibrium to the purified Arp2/3 complex at the indicated concentrations. b, Labelled ArpinA peptide bound to the Arp2/3 complex was then titrated with purified Arpin FL, ArpinΔA or unlabelled ArpinA peptide as indicated. […] Curves that best fit the values yield the indicated equilibrium constants.
The ArpinA peptide was synthesized and labelled with 5-TAMRA at the N-terminus (PROTEOGENIX). The peptide was excited with polarised light at 549 nm and emitted light was detected at 573 nm using a MOS450 fluorimeter (BIOLOGIC). Measurements were made for 60 s at 1 point/s and the average anisotropy was calculated with the Biologic software. Fits were performed as described in reference 40.

prechordal plate cells = assay: Prechordal plate cell migration and protrusions in morpholino-injected zebrafish embryos; assay type: in vivo
Source text: FIG. 17: Arpin regulates protrusion frequency of prechordal plate cells and their collective migration in zebrafish embryos. a, In situ hybridisation of arpin probe in zebrafish embryos at different stages. arpin mRNAs are maternally deposited. During gastrulation, arpin is expressed in hypoblast, which includes the prechordal plate. b, 3D trajectories of prechordal plate cells in embryos injected with control or arpin morpholino. During fish gastrulation, prechordal plate cells migrate collectively in a straight direction from the margin of the embryo towards the animal pole^32,33. […] Lateral displacement is the cell movement perpendicular to main direction of the migration. Distance between cells refers to the average distance of the nucleus of a given cell to the nuclei of its 5 closest neighbors. Mean±sem; n≧1469; *** P<0.001, t-test. c, At the onset of gastrulation prechordal plate cells derived from morpholino injected embryos were transplanted into the prechordal plate of an untreated host embryo at the same stage in order to allow imaging of cell autonomous effects on protrusion formation. Donor embryos are injected with control or arpin morpholinos and mRNAs encoding Lifeact-mCherry as well as GFP-Arpin for the rescue. Time lapse imaging of injected cells is performed by epifluorescence to reveal Lifeact a marker of filamentous actin, which stains actin-based protrusions. […]

Row | Substance | competition with the NPF (VCA) for Arp2/3 binding (Arp2/3 complex [1]) | speed and persistence of migration (MDA-MB-231 cells; Arpin-depleted MDA-MB-231 cells electroporated with purified Arpin) | idling (active movement) (MDA-MB-231 cells; MDA-MB-231 cells electroporated with Arpin protein) | territory explored (Mean Square Displacement) (trout keratocytes; n≧8, P<0.001) | turning (direction autocorrelation) (trout keratocytes) | frequency of branches in actin networks (ratio branches/filaments) (Arp2/3 complex [2]) | effect on spontaneous actin nucleation and activation of the Arp2/3 complex (Arp2/3 complex [3]; 2 μM Actin (10% pyrene-labelled), 20 nM Arp2/3, 500 nM Scar VCA, 5 μM Arpin) | inhibition of VCA-activated Arp2/3 actin polymerisation (Arp2/3 complex [3]) | Kd (Arp2/3 complex [3]; in a mixture including actin and the VCA, best fit of number of actin barbed ends, read-out: apparent Kd for the Arp2/3 complex from inhibition of Arp2/3 nucleation) [µM] | Arp2/3 binding in pulldown (Arp2/3 complex [4]) | Kd (Arp2/3 complex [5]; fluorescence anisotropy, purified Arp2/3 complex, read-out: dissociation constant for binding to the Arp2/3 complex) [µM] | displacement of labelled ArpinA peptide bound to the Arp2/3 complex (Arp2/3 complex [5]) | inhibition of VCA-activated Arp2/3 actin polymerisation (Arp2/3 complex [3]; listed as Acidic peptide) | dispersion of prechordal plate cells (lateral displacement, distance between cells) (prechordal plate cells; embryos injected with control or arpin morpholino, n≧1469, P<0.001) | probability of presence of protrusions and their duration (prechordal plate cells; transplanted prechordal plate cells from morpholino injected embryos, P<0.05)
1 | Arpin: protein of SEQ ID NO: 1, product of human C15orf38 gene (residues 1-226); new inhibitor of the Arp2/3 complex | Arp2/3 is displaced from its interaction with the VCA | speed and persistence decreased | more idling (less active movement) | explore a smaller territory than the controls | turn more than wild type | decreases the frequency of branches in actin networks | does not affect spontaneous actin nucleation and does not activate the Arp2/3 complex | inhibited actin polymerisation in a dose-dependent manner | 0.76 ± 0.156 | binds to the Arp2/3 complex through its acidic C-terminal region | 0.2 | displaces the labelled ArpinA peptide more efficiently than the A peptide | – | – | –
2 | ArpinA: ArpinA peptide, residues 211-226 of full length Arpin (last 16 amino-acids, EIREQGDGAEDEEWDD) | competes with the NPF for Arp2/3 binding | – | – | – | – | – | – | inhibits Arp2/3 activation in a dose dependent manner | – | – | – | – | sufficient for this inhibition, although it was less effective than full length Arpin | – | –
3 | ArpinΔA: Arpin deleted of its last 16 amino-acids (residues 1-210); human or zebrafish recombinant | not | – | – | – | turn more than wild type but less than wild type Arpin injected keratocytes | – | – | not | – | – | – | unable to displace the ArpinA peptide | – | – | –
4 | GTTGTCATAAATACGACTCATCTTC (all phosphorodiamidate morpholino (PMO)) [arpin morpholino] | – | – | – | – | – | – | – | – | – | – | – | – | – | induces dispersion as evidenced by increased lateral cell displacement and a higher distance between cells | increases the probability of presence of protrusions
